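How tested: cells in 96-well plates exposed to compound for 48 hours at five concentrations. Abbreviation: GI50, concentration required for 50% inhibition of growth.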 Active and inactive are the calls of the source. Rule as the data show it: active = GI50 up to about 1.1 µM and inactive = higher.
Assays:
Test in all cases: DTP human tumour cell line panel, 48 h
MCF7 = tested on: MCF7
SK-MEL-28 = tested on: SK-MEL-28
COLO 205 = tested on: COLO 205
OVCAR-5 = tested on: OVCAR-5
OVCAR-3 = tested on: OVCAR-3
HT-29 = tested on: HT-29
MDA-N = tested on: MDA-N
RXF 393 = tested on: RXF 393
NCI-H522 = tested on: NCI-H522
T47D = tested on: T47D
SR = tested on: SR
NCI/ADR-RES = tested on: NCI/ADR-RES
786-0 = tested on: 786-0
Hs-578T = tested on: Hs-578T
DU-145 = tested on: DU-145
OVCAR-4 = tested on: OVCAR-4
LOX IMVI = tested on: LOX IMVI
HCT-116 = tested on: HCT-116
HCC 2998 = tested on: HCC 2998

SMILES	GI50 (MCF7)	GI50 (SK-MEL-28)	GI50 (COLO 205)	GI50 (OVCAR-5)	GI50 (OVCAR-3)	GI50 (HT-29)	GI50 (MDA-N)	GI50 (RXF 393)	GI50 (NCI-H522)	GI50 (T47D)	GI50 (SR)	GI50 (NCI/ADR-RES)	GI50 (786-0)	GI50 (Hs-578T)	GI50 (DU-145)	GI50 (OVCAR-4)	GI50 (LOX IMVI)	GI50 (HCT-116)	GI50 (HCC 2998)
Cc1cc(Cc2c(C)c(C)c(Cc3cc(C)cc(C(C)(C)C)c3O)c(C)c2C)c(O)c(C(C)(C)C)c1	> 100 µM (inactive)	> 100 µM (inactive)	> 100 µM (inactive)	> 100 µM (inactive)	> 100 µM (inactive)	> 100 µM (inactive)	> 100 µM (inactive)	> 100 µM (inactive)	> 100 µM (inactive)	> 100 µM (inactive)	1.21 µM (inactive)	> 100 µM (inactive)	> 100 µM (inactive)	> 100 µM (inactive)	> 100 µM (inactive)	> 100 µM (inactive)	> 100 µM (inactive)	> 100 µM (inactive)	
COC(=O)CCc1cc(OC)c(O)c(C(Cc2ccc(OC)c(OC)c2)C(=O)OC)c1 (configuration not stated)	> 100 µM (inactive)	> 100 µM (inactive)	> 100 µM (inactive)	> 100 µM (inactive)	> 100 µM (inactive)	> 100 µM (inactive)	> 100 µM (inactive)	> 100 µM (inactive)	> 100 µM (inactive)	> 100 µM (inactive)	> 100 µM (inactive)	> 100 µM (inactive)	> 100 µM (inactive)	> 100 µM (inactive)	> 100 µM (inactive)	> 100 µM (inactive)	> 100 µM (inactive)	> 100 µM (inactive)	> 100 µM (inactive)
CO/C=C(/C(=O)OC)c1ccccc1[C@H]1C[C@@H]1c1ccc(OC)cc1	32.1 µM (inactive)	18.1 µM (inactive)	13.1 µM (inactive)	41.1 µM (inactive)	16.3 µM (inactive)	14.9 µM (inactive)	12.9 µM (inactive)	49.9 µM (inactive)	7.93 µM (inactive)	21.1 µM (inactive)	8.73 µM (inactive)	20.2 µM (inactive)	34 µM (inactive)	25.9 µM (inactive)	32.1 µM (inactive)	8.05 µM (inactive)		16.3 µM (inactive)	17.2 µM (inactive)
CC1=NC(C)(C)[N+]([O-])=C1	> 10 µM (inactive)	> 10 µM (inactive)	> 10 µM (inactive)	> 10 µM (inactive)	> 10 µM (inactive)	> 10 µM (inactive)	> 10 µM (inactive)	> 10 µM (inactive)	> 10 µM (inactive)	> 10 µM (inactive)	0.001 µM (active)	> 10 µM (inactive)	> 10 µM (inactive)	> 10 µM (inactive)	> 10 µM (inactive)		> 10 µM (inactive)	> 10 µM (inactive)	> 10 µM (inactive)
O=C1Oc2ccccc2C(=O)/C1=C1/C=C(c2ccccc2)SS1	> 100 µM (inactive)	> 100 µM (inactive)	57.5 µM (inactive)	> 100 µM (inactive)	71.1 µM (inactive)	40.6 µM (inactive)	34.8 µM (inactive)	63.2 µM (inactive)	49.3 µM (inactive)	> 100 µM (inactive)	28.3 µM (inactive)	60.1 µM (inactive)	> 100 µM (inactive)	> 100 µM (inactive)	85.5 µM (inactive)	91 µM (inactive)	64.7 µM (inactive)	56.6 µM (inactive)	96.8 µM (inactive)

From ChEMBL document CHEMBL1201862, “PubChem BioAssay data set” (2004)
